Test results as given in the supplement of paper PMC10307832.

Columns and labels:
Assay in all cases: relative viability (nuclei count vs DMSO), 5 days (fraction); higher = more cells survive
Bexarotene + Luminespib = compound: C=C(c1ccc(C(=O)O)cc1)c1cc2c(cc1C)C(C)(C)CCC2(C)C [Bexarotene] + CCNC(=O)c1noc(-c2cc(C(C)C)c(O)cc2O)c1-c1ccc(CN2CCOCC2)cc1 [Luminespib] (partner 0.01 µM)
How it was run: (§1)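 Lung cancer cell lines, seeded in 1536-well plates, were treated the following day by pin tool with a single drug or with five library-drug doses (not always all listed) in √10 steps on top of a fixed anchor-drug dose. Cells were fixed and nuclei stained in one step after 5 days, and nuclei were counted. Relative viability is the nuclei count for treated wells divided by that for vehicle wells, reported as medians of duplicate plates.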

Bexarotene + OSI-027 = compound: C=C(c1ccc(C(=O)O)cc1)c1cc2c(cc1C)C(C)(C)CCC2(C)C [Bexarotene] + COc1cccc2cc(-c3nc([C@H]4CC[C@H](C(=O)O)CC4)n4ncnc(N)c34)[nH]c12 [OSI-027] (partner 0.5 µM)
How it was run: as §1

Bexarotene + Lapatinib = compound: C=C(c1ccc(C(=O)O)cc1)c1cc2c(cc1C)C(C)(C)CCC2(C)C [Bexarotene] + CS(=O)(=O)CCNCc1ccc(-c2ccc3ncnc(Nc4ccc(OCc5cccc(F)c5)c(Cl)c4)c3c2)o1 [Lapatinib] (partner 2 µM)
How it was run: as §1

Bexarotene + Linsitinib = compound: C=C(c1ccc(C(=O)O)cc1)c1cc2c(cc1C)C(C)(C)CCC2(C)C [Bexarotene] + C[C@]1(O)C[C@@H](c2nc(-c3ccc4ccc(-c5ccccc5)nc4c3)c3c(N)nccn32)C1 [Linsitinib] (partner 1 µM)
How it was run: as §1

Cell Line | relative viability (Bexarotene + Luminespib; first compound 0.08 µM) | relative viability (Bexarotene + Luminespib; first compound 0.253 µM) | relative viability (Bexarotene + Luminespib; first compound 0.8 µM) | relative viability (Bexarotene + Luminespib; first compound 2.53 µM) | relative viability (Bexarotene + Luminespib; first compound 8 µM) | relative viability (Bexarotene + OSI-027; first compound 0.08 µM) | relative viability (Bexarotene + OSI-027; first compound 0.253 µM) | relative viability (Bexarotene + OSI-027; first compound 0.8 µM) | relative viability (Bexarotene + OSI-027; first compound 2.53 µM) | relative viability (Bexarotene + OSI-027; first compound 8 µM) | relative viability (Bexarotene + Lapatinib; first compound 0.08 µM) | relative viability (Bexarotene + Lapatinib; first compound 0.253 µM) | relative viability (Bexarotene + Lapatinib; first compound 0.8 µM) | relative viability (Bexarotene + Lapatinib; first compound 2.53 µM) | relative viability (Bexarotene + Lapatinib; first compound 8 µM) | relative viability (Bexarotene + Linsitinib; first compound 0.08 µM) | relative viability (Bexarotene + Linsitinib; first compound 0.253 µM) | relative viability (Bexarotene + Linsitinib; first compound 0.8 µM) | relative viability (Bexarotene + Linsitinib; first compound 2.53 µM) | relative viability (Bexarotene + Linsitinib; first compound 8 µM)
A-427 | 1.05 | 0.94 | 0.999 | 1.1 | 0.948 | 0.448 | 0.462 | 0.455 | 0.449 | 0.415 | 1.03 | 0.997 | 0.929 | 0.997 | 1.04 | 1.03 | 0.833 | 1.04 | 1.05 | 0.993
LCLC-97TM1 | 0.827 | 0.849 | 0.778 | 0.769 | 0.822 | 0.427 | 0.54 | 0.598 | 0.561 | 0.515 | 1.05 | 1.2 | 1.39 | 1.15 | 1.19 | 0.185 | 0.193 | 0.185 | 0.207 | 0.224
HCC-15 | 0.192 | 0.314 | 0.321 | 0.353 | 0.231 | 0.792 | 0.806 | 0.631 | 0.621 | 0.632 | 0.93 | 0.984 | 0.944 | 0.833 | 0.846 | 0.957 | 0.932 | 0.678 | 0.787 | 0.772
NCI-H647 | 0.148 | 0.176 | 0.211 | 0.134 | 0.11 | 0.636 | 0.627 | 0.601 | 0.573 | 0.624 | 1.33 | 1.17 | 1.19 | 1.24 | 0.964 | 1.29 | 1.41 | 1.22 | 1.26 | 0.914
SW 1573 | 0.252 | 0.216 | 0.222 | 0.615 | 0.242 | 0.696 | 0.58 | 0.564 | 0.469 | 0.471 | 1.09 | 1 | 1.1 | 0.919 | 0.916 | 0.777 | 0.608 | 0.681 | 0.754 | 0.536
NCI-H1651 | 1.06 | 0.881 | 0.938 | 0.845 | 0.911 | 0.843 | 0.717 | 0.71 | 0.702 | 0.744 | 1.08 | 0.968 | 0.887 | 0.862 | 0.753 | 1.12 | 0.934 | 1.02 | 1.08 | 0.984
NCI-H1792 | 0.519 | 0.406 | 0.49 | 0.361 | 0.286 | 0.739 | 0.757 | 0.681 | 0.764 | 0.68 | 0.883 | 0.763 | 0.794 | 0.574 | 0.837 | 0.437 | 0.586 | 0.259 | 0.422 | 0.342
NCI-H2023 | 0.903 | 0.86 | 0.618 | 0.568 | 0.547 | 0.384 | 0.391 | 0.439 | 0.311 | 0.378 | 1.03 | 1.14 | 0.979 | 0.63 | 0.595 | 0.785 | 0.911 | 0.735 | 0.683 | 0.625
COR-L 105 | 0.851 | 0.764 | 0.812 | 0.698 | 0.866 | 0.765 | 0.677 | 0.818 | 0.8 | 0.613 | 0.404 | 0.33 | 0.322 | 0.378 | 0.345 | 0.942 | 1.29 | 1.19 | 1.25 | 0.747
NCI-H1734 | 0.2 | 0.182 | 0.177 | 0.172 | 0.195 | 0.616 | 0.64 | 0.591 | 0.493 | 0.543 | 1.02 | 1.04 | 1.07 | 0.942 | 0.944 | 0.906 | 0.857 | 0.81 | 0.794 | 0.806
NCI-H3122 | 0.0956 | 0.0599 | 0.0864 | 0.0982 | 0.0732 | 1.09 | 1.09 | 1.05 | 0.989 | 1.07 | 1.09 | 1.06 | 1.12 | 1.08 | 1.12 | 1.14 | 1.08 | 1.1 | 1.07 | 1.14
CAL-12T | 0.218 | 0.224 | 0.419 | 0.322 | 0.297 | 0.523 | 0.416 | 0.49 | 0.439 | 0.441 | 0.632 | – | 0.638 | – | 0.543 | 0.682 | 0.894 | 0.727 | 0.707 | 0.656
NCI-H2085 | 0.451 | 0.556 | 0.374 | 0.457 | 0.378 | 0.841 | 0.718 | 0.642 | 0.675 | 0.704 | 0.739 | 0.723 | 0.596 | 0.703 | 0.731 | 0.776 | 0.793 | 0.797 | 0.685 | 0.712
